Data from US4231946A, “14,15-Methylene derivatives of the estrane series and methods for preparing same” (VEB Jenapharm, priority 1978, dated 1980).
Like-named read-outs stand apart in the source and are kept apart here.

Experiments:
inseminated rats = experiment: Antinidation / Nidation Inhibition Test in inseminated rats treated on the 1st day of gestation; format: in vivo, rat; settings: for ED50 / ED5 / ED95: Rattus norvegicus, po
Description: The favorable biological properties of the named compounds of the process according to the invention are to be further illustrated and described in the example of 3-methoxy-14β-15β-methylene-estra-1,3,5(10)-triene-17β-ol (test designation STS 593).
Gestation and nidation inhibition expressed in % were used as parameters for antifertility effects. GHE1 (gestation inhibitory effect) and IHE1 (nidation inhibitory effect) were related to the inhibition of the total of gestations or nidations, GHE2 and IHE2 were related to the inhibition of normal gestations or nidations within each group. […] GHE1, GHE2, IHE1 and IHE2 were calculated using the following formulae: [formula] n=number of females inseminated in each group v=test group
k=control group (sesame oil)
x=number of all gestations (GHE1) and of normal gestations (GHE2) p. group, respectively
f=average number (x) of all implantations (IHE1) and of normal implantations (IHE2) p. female inseminated within a group, respectively.
The comparison of the relative incidence of gestations was performed by the Ryan test, the comparison of the number of implantations by the Dunn test.
For GHE1 and GHE2 the ED (effective doses) for the HE (inhibitory effect) 0%, 50%, and 95% as far as possible were determined by means of the probit analysis. The ED50 for IHE1 and IHE2 were determined graphically.

[1] = General statement on antifertility effects and separation from uterine, estrogenic and antigonadotrophic activities; format: in vivo; settings: compared to mestranol
[2] = 1st trial 1975, 0.1 mg/kg p.o., n=12
[3] = 1st trial 1975, 0.3 mg/kg p.o., n=12
[4] = 1st trial 1975, 0.9 mg/kg p.o., n=12
[5] = 2nd trial 1978, 0.08 mg/kg p.o., n=10
[6] = 2nd trial 1978, 0.16 mg/kg p.o., n=10
[7] = 2nd trial 1978, 0.32 mg/kg p.o., n=10
[8] = 2nd trial 1978, 0.64 mg/kg p.o., n=10
[9] = 2nd trial 1978, 1.28 mg/kg p.o., n=10

In the case of `COc1ccc2c(c1)CC[C@@H]1[C@@H]2CC[C@]2(C)[C@@H](O)C[C@H]3C[C@@]312` [STS 593, 3-methoxy-14β,15β-methylene-estra-1,3,5(10)-triene-17β-ol], the “Female rats pregnant of n, normal” value (inseminated rats; [2]) is reported as 10, the “Female rats pregnant of n, total” value (inseminated rats; [2]) is reported as 10 and the GHE1 (inseminated rats; [2]) is reported as 16.7%. For the same compound, the GHE2 (inseminated rats; [2]) was 16.7%, the IHE1 (inseminated rats; [2]) was 30.0% and the IHE2 (inseminated rats; [2]) was 34.7%. For the same compound, the “Implantations per female (-x), normal” value (inseminated rats; [2]) was 8.2, the “Implantations per female (-x), total” value (inseminated rats; [2]) was 8.8 and the “Female rats pregnant of n, normal” value (inseminated rats; [3]) was 5. For the same compound, the “Female rats pregnant of n, total” value (inseminated rats; [3]) was 8, the GHE1 (inseminated rats; [3]) was 33.3% and the GHE2 (inseminated rats; [3]) was 58.3%. For the same compound, the IHE1 (inseminated rats; [3]) was 70.0%, the IHE2 (inseminated rats; [3]) was 72.7% and the “Implantations per female (-x), normal” value (inseminated rats; [3]) was 3.4. For the same compound, the “Implantations per female (-x), total” value (inseminated rats; [3]) was 3.8, the “Female rats pregnant of n, normal” value (inseminated rats; [4]) was 3 and the “Female rats pregnant of n, total” value (inseminated rats; [4]) was 6. For the same compound, the GHE1 (inseminated rats; [4]) was 50.0%, the GHE2 (inseminated rats; [4]) was 75.0% and the IHE1 (inseminated rats; [4]) was 86.7%. For the same compound, the IHE2 (inseminated rats; [4]) was 94.7%, the “Implantations per female (-x), normal” value (inseminated rats; [4]) was 0.7 and the “Implantations per female (-x), total” value (inseminated rats; [4]) was 1.7. For the same compound, the “Female rats pregnant of n, normal” value (inseminated rats; [5]) was 9, the “Female rats pregnant of n, total” value (inseminated rats; [5]) was 9 and the GHE1 (inseminated rats; [5]) was 10%. The GHE2 (inseminated rats; [5]) was 10%, the IHE1 (inseminated rats; [5]) was 18.5% and the IHE2 (inseminated rats; [5]) was 19.2%. The “Implantations per female (-x), normal” value (inseminated rats; [5]) was 10.5, the “Implantations per female (-x), total” value (inseminated rats; [5]) was 10.6 and the “Female rats pregnant of n, normal” value (inseminated rats; [6]) was 2. The “Female rats pregnant of n, total” value (inseminated rats; [6]) was 10, the GHE1 (inseminated rats; [6]) was 0% and the GHE2 (inseminated rats; [6]) was 80%. The IHE1 (inseminated rats; [6]) was 32.3%, the IHE2 (inseminated rats; [6]) was 82.3% and the “Implantations per female (-x), normal” value (inseminated rats; [6]) was 2.3. For the same compound, the “Implantations per female (-x), total” value (inseminated rats; [6]) was 8.8, the “Female rats pregnant of n, normal” value (inseminated rats; [7]) was 3 and the “Female rats pregnant of n, total” value (inseminated rats; [7]) was 5. The GHE1 (inseminated rats; [7]) was 50%, the GHE2 (inseminated rats; [7]) was 70% and the IHE1 (inseminated rats; [7]) was 74.6%. The IHE2 (inseminated rats; [7]) was 86.1%, the “Implantations per female (-x), normal” value (inseminated rats; [7]) was 1.8 and the “Implantations per female (-x), total” value (inseminated rats; [7]) was 3.3. The “Female rats pregnant of n, normal” value (inseminated rats; [8]) was 0, the “Female rats pregnant of n, total” value (inseminated rats; [8]) was 4 and the GHE1 (inseminated rats; [8]) was 60%. The GHE2 (inseminated rats; [8]) was 100%, the IHE1 (inseminated rats; [8]) was 87.7% and the IHE2 (inseminated rats; [8]) was 100%. The “Implantations per female (-x), normal” value (inseminated rats; [8]) was 0, the “Implantations per female (-x), total” value (inseminated rats; [8]) was 1.6 and the “Female rats pregnant of n, normal” value (inseminated rats; [9]) was 0. The “Female rats pregnant of n, total” value (inseminated rats; [9]) was 2, the GHE1 (inseminated rats; [9]) was 80% and the GHE2 (inseminated rats; [9]) was 100%. The IHE1 (inseminated rats; [9]) was 88.5%, the IHE2 (inseminated rats; [9]) was 100% and the “Implantations per female (-x), normal” value (inseminated rats; [9]) was 0. For the same compound, the “Implantations per female (-x), total” value (inseminated rats; [9]) was 1.5, the ED50 (inseminated rats; according to trial No. 1, read-out: ED50 for IHE1) was 0.175 mg/kg and the ED50 (inseminated rats; according to trial No. 1, read-out: ED50 for IHE2) was 0.155 mg/kg. It also gave an ED50 (inseminated rats; determined graphically, STS 593 from trial No. 2, read-out: ED 50 for IHE1) of 0.22 mg/kg, an ED50 (inseminated rats; determined graphically, STS 593 from trial No. 2, read-out: ED 50 for IHE2) of 0.112 mg/kg and an ED5 (inseminated rats; probit analysis, STS 593 from trial No. 2, read-out: ED 05 for GHE1) of 0.078 mg/kg. For the same compound, the ED5 (inseminated rats; probit analysis, STS 593 from trial No. 2, read-out: ED 05 for GHE2) was 0.044 mg/kg, the ED50 (inseminated rats; probit analysis, STS 593 from trial No. 2, read-out: ED 50 for GHE1) was 0.474 mg/kg and the ED50 (inseminated rats; probit analysis, STS 593 from trial No. 2, read-out: ED 50 for GHE2) was 0.147 mg/kg. For the same compound, the ED95 (inseminated rats; probit analysis, STS 593 from trial No. 2, read-out: ED 95 for GHE1) was 2.59 mg/kg, the ED95 (inseminated rats; probit analysis, STS 593 from trial No. 2, read-out: ED 95 for GHE2) was 0.454 mg/kg and the “Contraceptive activity related to IHE1, compared to ethynylestradiol” value (inseminated rats; female rat) was “nearly double the activity of ethynylestradiol”. For the same compound, the “Contraceptive activity related to IHE1, compared to mestranol” value (inseminated rats; female rat) was “in the range of that of mestranol” and the “Separation of contraceptive properties and undesirable (estrogenic, antigonadotrophic, progestagenic) side-effects vs mestranol” value [1] was “more favorable separation”.
